ChEMBL document CHEMBL3885881, “DrugMatrix”

Organism: Rattus norvegicus
Assay: DrugMatrix - Regimen: Daily Repeat
Type: toxicity, organism-based, Sprague-Dawley
Set-up: regimen Daily Repeat, gender Male, age 6-8 weeks
Settings: in vivo, po, route oral GAVAGE, vehicle .5 % CMC; for ABSOLUTE BASOPHIL / ABSOLUTE EOSINOPHIL / ABSOLUTE LYMPHOCYTE / ABSOLUTE MONOCYTE / ABSOLUTE SEGMENTED NEUTROPHIL / BASOPHIL / EOSINOPHIL / ERYTHROCYTE COUNT / HEMATOCRIT / HEMOGLOBIN / LEUKOCYTE COUNT / LYMPHOCYTE / MEAN CORPUSCULAR HEMOGLOBIN / MEAN CORPUSCULAR HEMOGLOBIN CONCENTRATION / MEAN CORPUSCULAR VOLUME / MONOCYTE / NEUTROPHIL / NUCLEATED RED BLOOD CELLS / PLATELET COUNT: tissue Blood; for ALANINE AMINOTRANSFERASE / ALBUMIN / ALKALINE PHOSPHATASE / ASPARTATE AMINOTRANSFERASE / BLOOD UREA NITROGEN / CARBON DIOXIDE / CHLORIDE / CHOLESTEROL / CREATINE PHOSPHOKINASE / CREATININE / GLUCOSE / LACTATE DEHYDROGENASE / LIPASE / PHOSPHORUS / POTASSIUM / SODIUM / TOTAL BILIRUBIN / TOTAL PROTEIN / URIC ACID: tissue Plasma
[1] = 0 mg/kg, 72 h, dose level Control, time 3 day
[2] = 0 mg/kg, 120 h, dose level Control, time 5 day
[3] = 100 mg/kg, 72 h, dose level Low, time 3 day

In the case of NC(=O)CN1CCCC1=O, the “ABSOLUTE BASOPHIL” value [1] is reported as 0 CELLS/uL, the “ABSOLUTE EOSINOPHIL” value [1] is reported as 0 CELLS/uL and the “ABSOLUTE LYMPHOCYTE” value [1] is reported as 12191.17 CELLS/uL. The “ABSOLUTE MONOCYTE” value [1] was 183.17 CELLS/uL, the “ABSOLUTE SEGMENTED NEUTROPHIL” value [1] was 1192.33 CELLS/uL and the BASOPHIL [1] was 0%. The EOSINOPHIL [1] was 0%, the “ERYTHROCYTE COUNT” value [1] was 5.51 x10E6/uL and the HEMATOCRIT [1] was 35.45%. For the same compound, the HEMOGLOBIN [1] was 13.82 G/DL, the “LEUKOCYTE COUNT” value [1] was 13.57 x10E3/uL and the LYMPHOCYTE [1] was 89.83%. The “MEAN CORPUSCULAR HEMOGLOBIN” value [1] was 25.1 pg, the “MEAN CORPUSCULAR HEMOGLOBIN CONCENTRATION” value [1] was 38.98 G/DL and the “MEAN CORPUSCULAR VOLUME” value [1] was 64.42 fL. For the same compound, the MONOCYTE [1] was 1.33%, the NEUTROPHIL [1] was 8.83% and the “NUCLEATED RED BLOOD CELLS” value [1] was 0 /100WBC. The “PLATELET COUNT” value [1] was 1118.17 x10E3/uL, the “ALANINE AMINOTRANSFERASE” value [1] was 55 u/L and the ALBUMIN [1] was 4.15 G/DL. For the same compound, the “ALKALINE PHOSPHATASE” value [1] was 449.5 u/L, the “ASPARTATE AMINOTRANSFERASE” value [1] was 112.83 u/L and the “BLOOD UREA NITROGEN” value [1] was 17.33 mg/dL. For the same compound, the “CARBON DIOXIDE” value [1] was 29.5 mmol/L, the CHLORIDE [1] was 101 MEQ/L and the CHOLESTEROL [1] was 70 mg/dL. For the same compound, the “CREATINE PHOSPHOKINASE” value [1] was 1325.83 u/L, the CREATININE [1] was 0.18 mg/dL and the GLUCOSE [1] was 171.5 mg/dL. The “LACTATE DEHYDROGENASE” value [1] was 386 u/L, the LIPASE [1] was 10 u/L and the PHOSPHORUS [1] was 11.57 mg/dL. The POTASSIUM [1] was 6.21 MEQ/L, the SODIUM [1] was 141.65 MEQ/L and the “TOTAL BILIRUBIN” value [1] was 0.15 mg/dL. The “TOTAL PROTEIN” value [1] was 5.75 G/DL, the “URIC ACID” value [1] was 1.28 mg/dL and the “ABSOLUTE BASOPHIL” value [2] was 0 CELLS/uL. The “ABSOLUTE EOSINOPHIL” value [2] was 138.17 CELLS/uL, the “ABSOLUTE LYMPHOCYTE” value [2] was 13283.17 CELLS/uL and the “ABSOLUTE MONOCYTE” value [2] was 303.83 CELLS/uL. For the same compound, the “ABSOLUTE SEGMENTED NEUTROPHIL” value [2] was 1308.17 CELLS/uL, the BASOPHIL [2] was 0% and the EOSINOPHIL [2] was 1%. The “ERYTHROCYTE COUNT” value [2] was 5.32 x10E6/uL, the HEMATOCRIT [2] was 33.8% and the HEMOGLOBIN [2] was 13.63 G/DL. For the same compound, the “LEUKOCYTE COUNT” value [2] was 15.03 x10E3/uL, the LYMPHOCYTE [2] was 88.33% and the “MEAN CORPUSCULAR HEMOGLOBIN” value [2] was 25.68 pg. For the same compound, the “MEAN CORPUSCULAR HEMOGLOBIN CONCENTRATION” value [2] was 40.35 G/DL, the “MEAN CORPUSCULAR VOLUME” value [2] was 63.67 fL and the MONOCYTE [2] was 1.83%. The NEUTROPHIL [2] was 8.83%, the “NUCLEATED RED BLOOD CELLS” value [2] was 0 /100WBC and the “PLATELET COUNT” value [2] was 1097.5 x10E3/uL. For the same compound, the “ALANINE AMINOTRANSFERASE” value [2] was 54.5 u/L, the ALBUMIN [2] was 4.27 G/DL and the “ALKALINE PHOSPHATASE” value [2] was 337 u/L. For the same compound, the “ASPARTATE AMINOTRANSFERASE” value [2] was 94.67 u/L, the “BLOOD UREA NITROGEN” value [2] was 17 mg/dL and the “CARBON DIOXIDE” value [2] was 28.33 mmol/L. The CHLORIDE [2] was 101.5 MEQ/L, the CHOLESTEROL [2] was 71.33 mg/dL and the “CREATINE PHOSPHOKINASE” value [2] was 628.17 u/L. For the same compound, the CREATININE [2] was 0.19 mg/dL, the GLUCOSE [2] was 177.83 mg/dL and the “LACTATE DEHYDROGENASE” value [2] was 500.5 u/L. It also gave an LIPASE [2] of 9.5 u/L, a PHOSPHORUS [2] of 12.3 mg/dL and a POTASSIUM [2] of 5.63 MEQ/L. The SODIUM [2] was 143.03 MEQ/L, the “TOTAL BILIRUBIN” value [2] was 0.2 mg/dL and the “TOTAL PROTEIN” value [2] was 6.02 G/DL. For the same compound, the “URIC ACID” value [2] was 1.5 mg/dL, the “ABSOLUTE BASOPHIL” value [3] was 0 CELLS/uL and the “ABSOLUTE EOSINOPHIL” value [3] was 0 CELLS/uL. For the same compound, the “ABSOLUTE LYMPHOCYTE” value [3] was 10885.67 CELLS/uL, the “ABSOLUTE MONOCYTE” value [3] was 0 CELLS/uL and the “ABSOLUTE SEGMENTED NEUTROPHIL” value [3] was 981 CELLS/uL. The BASOPHIL [3] was 0%, the EOSINOPHIL [3] was 0% and the “ERYTHROCYTE COUNT” value [3] was 5.15 x10E6/uL. For the same compound, the HEMATOCRIT [3] was 32.9%, the HEMOGLOBIN [3] was 13.47 G/DL and the “LEUKOCYTE COUNT” value [3] was 11.87 x10E3/uL. For the same compound, the LYMPHOCYTE [3] was 92%, the “MEAN CORPUSCULAR HEMOGLOBIN” value [3] was 26.17 pg and the “MEAN CORPUSCULAR HEMOGLOBIN CONCENTRATION” value [3] was 40.97 G/DL. The “MEAN CORPUSCULAR VOLUME” value [3] was 63.87 fL, the MONOCYTE [3] was 0% and the NEUTROPHIL [3] was 8%. For the same compound, the “NUCLEATED RED BLOOD CELLS” value [3] was 0 /100WBC, the “PLATELET COUNT” value [3] was 1222.67 x10E3/uL and the “ALANINE AMINOTRANSFERASE” value [3] was 51.33 u/L. The ALBUMIN [3] was 4.07 G/DL, the “ALKALINE PHOSPHATASE” value [3] was 403 u/L and the “ASPARTATE AMINOTRANSFERASE” value [3] was 87.67 u/L. For the same compound, the “BLOOD UREA NITROGEN” value [3] was 15 mg/dL, the “CARBON DIOXIDE” value [3] was 25 mmol/L and the CHLORIDE [3] was 102.33 MEQ/L. The CHOLESTEROL [3] was 61 mg/dL, the “CREATINE PHOSPHOKINASE” value [3] was 556.33 u/L and the CREATININE [3] was 0.2 mg/dL. For the same compound, the GLUCOSE [3] was 204.67 mg/dL, the “LACTATE DEHYDROGENASE” value [3] was 170.67 u/L and the LIPASE [3] was 10 u/L. It also gave a PHOSPHORUS [3] of 13.13 mg/dL, a POTASSIUM [3] of 5.4 MEQ/L and an SODIUM [3] of 143.3 MEQ/L. For the same compound, the “TOTAL BILIRUBIN” value [3] was 0.1 mg/dL, the “TOTAL PROTEIN” value [3] was 5.5 G/DL and the “URIC ACID” value [3] was 1.8 mg/dL.
